US20250230165A1, “HETEROCYCLIC COMPOUNDS FOR USE IN THE TREATMENT OF CANCER” (ARTIOS PHARMA LIMITED, priority 2021, published 2025)

Molecular target: T1, Human Polθ polymerase domain (aa1820-2590) (Homo sapiens, UniProt O75417)
T1 construct: Human Polθ polymerase domain (aa1820-2590) was expressed in E. coli; made in house; host or cells: E. coli
T1 sequence (O75417 1820-2590): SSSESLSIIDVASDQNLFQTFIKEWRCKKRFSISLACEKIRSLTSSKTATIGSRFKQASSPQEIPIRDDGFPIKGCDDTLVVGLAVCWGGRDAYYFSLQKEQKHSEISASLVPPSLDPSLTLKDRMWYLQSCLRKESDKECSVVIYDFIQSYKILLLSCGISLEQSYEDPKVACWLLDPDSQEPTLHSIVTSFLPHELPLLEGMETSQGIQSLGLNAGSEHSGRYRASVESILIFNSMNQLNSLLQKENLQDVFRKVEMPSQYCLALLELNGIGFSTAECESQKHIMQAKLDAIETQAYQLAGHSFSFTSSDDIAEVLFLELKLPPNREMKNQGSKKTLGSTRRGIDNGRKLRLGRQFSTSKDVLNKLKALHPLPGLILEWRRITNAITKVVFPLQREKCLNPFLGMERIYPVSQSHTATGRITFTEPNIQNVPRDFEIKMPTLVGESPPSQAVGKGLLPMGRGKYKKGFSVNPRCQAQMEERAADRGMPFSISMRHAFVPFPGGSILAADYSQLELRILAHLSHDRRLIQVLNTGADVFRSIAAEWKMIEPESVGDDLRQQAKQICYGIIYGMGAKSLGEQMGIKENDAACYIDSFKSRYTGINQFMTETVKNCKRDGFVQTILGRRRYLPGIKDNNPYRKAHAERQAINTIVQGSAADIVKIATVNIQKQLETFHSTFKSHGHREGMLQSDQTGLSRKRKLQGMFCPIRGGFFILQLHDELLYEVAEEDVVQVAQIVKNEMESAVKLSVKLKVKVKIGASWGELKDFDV
Assay: Polθ Polymerase Domain Kinact/KI Assay (PicoGreen)
Type: biochemical
Conditions: 0.8 nM Polθ, 100 nM DNA substrate, kobs vs [I] fit for 2-step covalent inhibitor
Procedure, shortened: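 Kinact and KI derive from fitting kobs versus [I], where kobs were fitted from EDTA-stopped PicoGreen time courses (up to 60 min) in Tris pH 7.5 buffer with 1% DMSO, 0.8 nM enzyme, 100 nM DNA and […].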

Kinact/Kl [M⁻¹ s⁻¹]	SMILES
1.14e+06	C=CC(=O)N1CC2(C1)CN(C(=O)CN1C[C@H]3CC(=O)N(c4cc(C(F)(F)F)cc(C)n4)[C@@H]3C(=O)N(C)c3cccc(F)c31)c1nccn12 [Example 106, (3aR,11aS)-5-(2-(1-acryloylspiro[azetidine-3,3′-imidazo[1,2-a]imidazo]-1′(2′H)-yl)ethyl)-6-fluoro-10-methyl-1-(6-methyl-4-(trifluoromethyl)pyridin-2-yl)-1,3a,4,5,10,11a-hexahydro-2H-benzo[b]pyrrolo[2,3-f][1,4]diazocine-2,11(3H)-dione]
2.49e+06	C=CC(=O)N1CC2(CN(CCN3C[C@H]4CC(=O)N(c5cc(C(F)(F)F)cc(C)n5)[C@@H]4C(=O)N(C)c4cccc(Cl)c43)CC(=O)N2C)C1 [Example 111, (3aR,11aS)-5-(2-(2-acryloyl-5-methyl-6-oxo-2,5,8-triazaspiro[3.5]nonan-8-yl)ethyl)-6-chloro-10-methyl-1-(6-methyl-4-(trifluoromethyl)pyridin-2-yl)-1,3a,4,5,10,11a-hexahydro-2H-benzo[b]pyrrolo[2,3-f][1,4]diazocine-2,11(3H)-dione]
920000	C=CC(=O)N1CC(N2CCN(CCN3C[C@H]4CC(=O)N(c5cc(C(F)(F)F)cc(C)n5)[C@@H]4C(=O)N(C)c4cccc(Cl)c43)CC2=O)C1 [Example 112, (3aR,11aS)-5-(2-(4-(1-acryloylazetidin-3-yl)-3-oxopiperazin-1-yl)ethyl)-6-chloro-10-methyl-1-(6-methyl-4-(trifluoromethyl)pyridin-2-yl)-1,3a,4,5,10,11a-hexahydro-2H-benzo[b]pyrrolo[2,3-f][1,4]diazocine-2,11(3H)-dione]
580000	C=CC(=O)N1CC2(CN(CCN3C[C@H]4CC(=O)N(c5cc(C(F)(F)F)cc(C)n5)[C@@H]4C(=O)N(C)c4cccc(C)c43)CCN2)C1 [Example 114, (3aR,11aS)-5-(2-(2-acryloyl-2,5,8-triazaspiro[3.5]nonan-8-yl)ethyl)-6,10-dimethyl-1-(6-methyl-4-(trifluoromethyl)pyridin-2-yl)-1,3a,4,5,10,11a-hexahydro-2H-benzo[b]pyrrolo[2,3-f][1,4]diazocine-2,11(3H)-dione]
2.35e+06	C=CC(=O)N1CC(N2CCN(CCN3C[C@H]4CC(=O)N(c5cc(C(F)(F)F)cc(C)n5)[C@@H]4C(=O)N(C)c4cccc(C)c43)CC2)C1 [Example 115, (3aR,11aS)-5-(2-(4-(1-acryloylazetidin-3-yl)piperazin-1-yl)ethyl)-6,10-dimethyl-1-(6-methyl-4-(trifluoromethyl)pyridin-2-yl)-1,3a,4,5,10,11a-hexahydro-2H-benzo[b]pyrrolo[2,3-f][1,4]diazocine-2,11(3H)-dione]
890000	C=CC(=O)N1CC(n2ccc(CN3C[C@H]4CC(=O)N(c5cc(C(F)(F)F)cc(C)n5)[C@@H]4C(=O)N(C)c4cccc(F)c43)n2)C1 [Example 120, (3aR,11aS)-5-((1-(1-acryloylazetidin-3-yl)-1H-pyrazol-3-yl)methyl)-6-fluoro-10-methyl-1-(6-methyl-4-(trifluoromethyl)pyridin-2-yl)-1,3a,4,5,10,11a-hexahydro-2H-benzo[b]pyrrolo[2,3-f][1,4]diazocine-2,11(3H)-dione]
540000	C=CC(=O)N1CC(n2cc(CN3C[C@H]4CC(=O)N(c5cc(C(F)(F)F)cc(C)n5)[C@@H]4C(=O)N(C)c4cccc(F)c43)cn2)C1 [Example 121, (3aR,11aS)-5-((1-(1-acryloylazetidin-3-yl)-1H-pyrazol-4-yl)methyl)-6-fluoro-10-methyl-1-(6-methyl-4-(trifluoromethyl)pyridin-2-yl)-1,3a,4,5,10,11a-hexahydro-2H-benzo[b]pyrrolo[2,3-f][1,4]diazocine-2,11(3H)-dione]
610000	C=CC(=O)N1CC(c2nc(CN3C[C@H]4CC(=O)N(c5cc(C(F)(F)F)cc(C)n5)[C@@H]4C(=O)N(C)c4cccc(F)c43)c[nH]2)C1 [Example 122, (3aR,11aS)-5-((2-(1-acryloylazetidin-3-yl)-1H-imidazol-4-yl)methyl)-6-fluoro-10-methyl-1-(6-methyl-4-(trifluoromethyl)pyridin-2-yl)-1,3a,4,5,10,11a-hexahydro-2H-benzo[b]pyrrolo[2,3-f][1,4]diazocine-2,11(3H)-dione]
270000	C=CC(=O)N1CC(n2cnc(CN3C[C@H]4CC(=O)N(c5cc(C(F)(F)F)cc(C)n5)[C@@H]4C(=O)N(C)c4cccc(F)c43)n2)C1 [Example 123, (3aR,11aS)-5-((1-(1-acryloylazetidin-3-yl)-1H-1,2,4-triazol-3-yl)methyl)-6-fluoro-10-methyl-1-(6-methyl-4-(trifluoromethyl)pyridin-2-yl)-1,3a,4,5,10,11a-hexahydro-2H-benzo[b]pyrrolo[2,3-f][1,4]diazocine-2,11(3H)-dione]
11000	C=CC(=O)N1CCN(c2nc(CN3C[C@H]4CC(=O)N(c5cc(C(F)(F)F)cc(C)n5)[C@@H]4C(=O)N(C)c4cccc(F)c43)co2)CC1 [Example 124, (3aR,11aS)-5-((2-(4-acryloylpiperazin-1-yl)oxazol-4-yl)methyl)-6-fluoro-10-methyl-1-(6-methyl-4-(trifluoromethyl)pyridin-2-yl)-1,3a,4,5,10,11a-hexahydro-2H-benzo[b]pyrrolo[2,3-f][1,4]diazocine-2,11(3H)-dione]
2.53e+06	C=CC(=O)N1CCN(c2nc(CN3C[C@H]4CC(=O)N(c5cc(C(F)(F)F)cc(C)n5)[C@@H]4C(=O)N(C)c4cccc(F)c43)c[nH]2)CC1 [Example 125, (3aR,11aS)-5-((2-(4-acryloylpiperazin-1-yl)-1H-imidazol-4-yl)methyl)-6-fluoro-10-methyl-1-(6-methyl-4-(trifluoromethyl)pyridin-2-yl)-1,3a,4,5,10,11a-hexahydro-2H-benzo[b]pyrrolo[2,3-f][1,4]diazocine-2,11(3H)-dione]
460000	C=CC(=O)N1CCC(n2cnc(CN3C[C@H]4CC(=O)N(c5cc(C(F)(F)F)cc(C)n5)[C@@H]4C(=O)N(C)c4cccc(F)c43)n2)CC1 [Example 126, (3aR,11aS)-5-((1-(1-acryloylpiperidin-4-yl)-1H-1,2,4-triazol-3-yl)methyl)-6-fluoro-10-methyl-1-(6-methyl-4-(trifluoromethyl)pyridin-2-yl)-1,3a,4,5,10,11a-hexahydro-2H-benzo[b]pyrrolo[2,3-f][1,4]diazocine-2,11(3H)-dione]
650000	C=CC(=O)N1CC(c2cccc(CN3C[C@H]4CC(=O)N(c5cc(C(F)(F)F)cc(C)n5)[C@@H]4C(=O)N(C)c4cccc(F)c43)c2)C1 [Example 127, (3aR,11aS)-5-(3-(1-acryloylazetidin-3-yl)benzyl)-6-fluoro-10-methyl-1-(6-methyl-4-(trifluoromethyl)pyridin-2-yl)-1,3a,4,5,10,11a-hexahydro-2H-benzo[b]pyrrolo[2,3-f][1,4]diazocine-2,11(3H)-dione]
660000	C=CC(=O)N1CC(c2cccc(CN3C[C@H]4CC(=O)N(c5cc(C(F)(F)F)cc(C)n5)[C@@H]4C(=O)N(C)c4cccc(F)c43)n2)C1 [Example 128, (3aR,11aS)-5-((6-(1-acryloylazetidin-3-yl)pyridin-2-yl)methyl)-6-fluoro-10-methyl-1-(6-methyl-4-(trifluoromethyl)pyridin-2-yl)-1,3a,4,5,10,11a-hexahydro-2H-benzo[b]pyrrolo[2,3-f][1,4]diazocine-2,11(3H)-dione]
